From ChEMBL document CHEMBL1147896, “Small molecule inhibitors of E. coli primase, a novel bacterial target” (Bioorg Med Chem Lett, 2007)
pIC50: −log10 of the molar value. Converted amounts (≈) assume the structure as drawn.

Assays:
[1] = Inhibition of Escherichia coli primase by scintillation proximity assay
Escherichia coli = test: Antibacterial activity against Escherichia coli; assay type: functional

pIC50 [1]	MIC (Escherichia coli) [mg/L]	SMILES
4.44	> 64	CCN(CC)CCNc1nc(SC)nc2c1sc1nc(C(C)C)c3c(c12)CCC3
5.14	> 64	CN1CCN(c2nc(-c3ccccc3O)nc3ccccc23)CC1
4.58	8 (≈ 19.9 µM)	CSc1nc(NCCN(C)C)c2sc3nc(C(C)C)c4c(c3c2n1)CCC4
4.35	64 (≈ 124 µM)	CCN(CC)CCNc1nc(SC)nc2c1sc1nc(N3CCOCC3)c3c(c12)CC(C)(C)OC3
3.99	8 (≈ 19.2 µM)	CCCCc1nc2sc3c(NCCN(C)C)nc(SC)nc3c2c2c1CCC2
4.10	> 64	CSc1nc(NCCN(C)C)c2sc3nc(CC(C)C)c4c(c3c2n1)CC(C)(C)OC4
< 3.70	> 64	CCN1CCN(c2nc(SC)nc3c2sc2nc(C(C)C)c4c(c23)CCC4)CC1
< 3.70	> 64	CN1CCN(c2nc(-c3ccc(Cl)cc3)nc3c2oc2ccccc23)CC1
4.21	16 (≈ 43.3 µM)	CC(C)c1nc2sc3c(NCCN(C)C)ncnc3c2c2c1CCCC2
< 3.70	> 64	CSc1nc(NCCN2CCOCC2)c2sc3nc(C(C)C)c4c(c3c2n1)CCC4
3.86	64 (≈ 215 µM)	OCCN1CCN(c2ncnc3c2oc2ccccc23)CC1
4.37	> 64	CN1CCN(c2nc(-c3ccccc3)nc3c2oc2ccccc23)CC1
4.74	64 (≈ 186 µM)	c1ccc(-c2cn3c4ccccc4n(CCN4CCCCC4)c3n2)cc1
5.47	4 (≈ 12 µM)	CN(C)CCOc1nc(-c2ccccc2)nc2c1oc1ccccc12
3.77	> 64	CCc1nc(N2CCN(CC)CC2)c2oc3ccccc3c2n1
4.56	> 64	CCN1CCN(c2nc(-c3ccncc3)nc3ccccc23)CC1
4.35	> 64	CN(C)CCNc1cc(-c2ccncc2)nc(-c2ccccn2)n1
4.30	> 64	CN1CCN(c2nc(Nc3cccc(O)c3)nc3ccccc23)CC1
4.00	64 (≈ 179 µM)	Cc1ccc(-c2cn3c4ccccc4n(CCN4CCCCC4)c3n2)cc1
3.79	> 64	COc1ccc(-c2cn3c4ccccc4n(CCN4CCCCC4)c3n2)cc1
4.49	64 (≈ 183 µM)	c1csc(-c2cn3c4ccccc4n(CCN4CCCCC4)c3n2)c1
3.91	> 64	c1ccc2c(c1)oc1c(N3CCN(C4CCCC4)CC3)ncnc12
4.07	64 (≈ 239 µM)	CN1CCN(c2ncnc3c2oc2ccccc23)CC1
4.66	4 (≈ 9.62 µM)	CSc1nc(NCCN(C)C)c2sc3nc(CC(C)C)c4c(c3c2n1)CCC4
4.77	32 (≈ 71.8 µM)	CCN(CC)CCNc1nc(SC)nc2c1sc1nc(C)c3c(c12)CC(C)(C)OC3
